In patent US20080008704A1, “Methods of treating colorectal cancer with anti-epidermal growth factor antibodies” (priority 2001, published 2008):
“Also recorded” adds a separate entry of the source.

Experiments:
Assay type in all cases: in vivo, human
[1] = system: metastatic colon cancer, liver metastasis; experiment: Prior therapies of the Example 1 patient before C225; settings: same patient
Description: (§1) A patient presented with abdominal pain and constipation. […] Pathology confirmed metastatic colon cancer which is incurable. […] Since there were no other standard treatment options their tumor was assayed for EGF receptor which was positive.

[2] = system: metastatic colon cancer (EGF receptor positive); experiment: Example 1: patient with metastatic colon cancer treated with C225 and CPT-11; settings: IRINOTECAN 125 mg/m^2 weekly given with C225
Description: as §1
For the first two weeks, IRINOTECAN® was administered at a dose of 125 mg/m^2.

[3] = system: colon cancer relapse (unresectable peritoneal disease, pulmonary metastasis); experiment: Example 2: same patient after relapse, treated again with C225 and dose reduced CPT-11, then C225 alone; settings: dose reduced CPT-11 with C225
Text: The subsequent history of the patient described in Example 1 is as follows. […] This was resected and subsequently they received both intrahepatic and systemic chemotherapy (FUDR and CPT-11) for 6 months.

O=c1[nH]cc(F)c(=O)[nH]1 [5-FU, 5-fluorouracil]
disease course on prior therapy [1]: progressed with increasing liver metastasis

CCc1c2c(nc3ccc(OC(=O)N4CCC(N5CCCCC5)CC4)cc13)-c1cc3c(c(=O)n1C2)COC(=O)[C@]3(O)CC [IRINOTECAN]
toxicity causing IRINOTECAN dose to be held or reduced [2]: diarrhea; also recorded: neutropenia
tolerability of CPT-11 [3]: discontinued secondary to toxicity
disease course on prior therapy [1]: continued to progress in the liver

O=C1[O][Pt]2([NH][C@@H]3CCCC[C@H]3[NH]2)[O]C1=O [OXALOPLATIN]
disease course on prior therapy [1]: further disease progression in the liver
